Laboratory results as given in patent US20080221052A1, “Modulation of Wrn-Mediated Telomere-Initiated Cell Signaling” (priority 2004, published 2008).
{P} = phosphate

Key:
p53 serine 37 = test: Western analysis of p53 phosphorylated on serine 37 in newborn fibroblasts; type: cell-based; conditions: 40 μM
S91 mouse melanoma cells = test: Melanin content of S91 mouse melanoma cells; type: cell-based; conditions: 6 days
Description: FIG. 4 is a bar graph showing the melanin content (in pg/cell) of cells treated with diluent, pTpT or pTspT.
FIG. 5 is a bar graph showing the melanin content (in pg/cell) of cells treated with diluent, 11 mer-1 or 11 mer-1-S.
Cultures of S91 mouse melanoma cells (100,000 cells/38 cm^2) were treated with 100 μM pTpT or phosphorothioate pTpT (pTspT) (FIG. 4) or 40 μM 11 mer-1 or the phosphorothioate 11 mer-1 (11 mer-1-S) (FIG. 5) for 6 days and were then collected, counted and assayed for melanin content.

[1] = test system: p53, E2F1 transcription factor; test: Western analysis of p53 and E2F1 in Jurkat cells; type: cell-based, human; conditions: by 24 hours after addition
DNA-PKCS = test: Western blot with antibody against ATM phosphoserine 1981 in normal newborn fibroblasts; type: cell-based; conditions: 40 μM, 4-48 hours
Description: The positions of ATM and DNA-PKCS are indicated. Sham and irradiated (10 Gy IR) fibroblasts were included as controls.
Normal newborn fibroblasts were treated with 40 μM T-oligo or an equal volume of diluent for 4, 6, 8, 16, 24 or 48 hours then collected and analyzed by Western blot using an antibody against ATM phosphoserine 1981. […] The phosphorylated protein was shown in subsequent experiments to co-migrate with the catalytic subunit of ATM-related DNA-dependent protein kinase (DNA-PKCS), which would reasonably be expected to bind an antibody raised against the highly homologous ATM protein.

[2] = test system: keratinocyte cell line (SSC12F); test: S-phase arrest by FACS in keratinocyte cell line; type: cell-based; conditions: 48 hours, 11 mer-1 alone (10 μM per FIG. 3B); diluent control 26%
Description: FIGS. 3A-3G are profiles showing the results of fluorescence activated cell sorting, for the following additions to the cells: FIG. 3A, diluent; FIG. 3B, 10 μM 11 mer-1; FIG. 3C, 10 μM 11 mer-1 and 1 μM 11 mer-1-S; FIG. 3D, 10 μM 11 mer-1 and 5 μM 11 mer-1-S; FIG. 3E, 10 μM 11 mer-1 and 10 μM 11 mer-1-S; FIG. 3F, 20 μM 1 mer-1-S; FIG. 3G, 10 μM 11 mer-1-S.
Forty-three percent of the cells were in the S phase, compared to 26% of the control, diluent-treated cells.

WRN = molecular target: T1, WRN (Homo sapiens, UniProt Q14191); test: WRN siRNA knock-down and T-oligo response, western blot in normal neonatal fibroblasts; type: cell-based; conditions: 40 μM T-oligo, 24 or 48 hours, WRN siRNA-treated cells
T1 construct: endogenous in cells; host or cells: normal neonatal fibroblasts
T1 sequence (Q14191 whole entry): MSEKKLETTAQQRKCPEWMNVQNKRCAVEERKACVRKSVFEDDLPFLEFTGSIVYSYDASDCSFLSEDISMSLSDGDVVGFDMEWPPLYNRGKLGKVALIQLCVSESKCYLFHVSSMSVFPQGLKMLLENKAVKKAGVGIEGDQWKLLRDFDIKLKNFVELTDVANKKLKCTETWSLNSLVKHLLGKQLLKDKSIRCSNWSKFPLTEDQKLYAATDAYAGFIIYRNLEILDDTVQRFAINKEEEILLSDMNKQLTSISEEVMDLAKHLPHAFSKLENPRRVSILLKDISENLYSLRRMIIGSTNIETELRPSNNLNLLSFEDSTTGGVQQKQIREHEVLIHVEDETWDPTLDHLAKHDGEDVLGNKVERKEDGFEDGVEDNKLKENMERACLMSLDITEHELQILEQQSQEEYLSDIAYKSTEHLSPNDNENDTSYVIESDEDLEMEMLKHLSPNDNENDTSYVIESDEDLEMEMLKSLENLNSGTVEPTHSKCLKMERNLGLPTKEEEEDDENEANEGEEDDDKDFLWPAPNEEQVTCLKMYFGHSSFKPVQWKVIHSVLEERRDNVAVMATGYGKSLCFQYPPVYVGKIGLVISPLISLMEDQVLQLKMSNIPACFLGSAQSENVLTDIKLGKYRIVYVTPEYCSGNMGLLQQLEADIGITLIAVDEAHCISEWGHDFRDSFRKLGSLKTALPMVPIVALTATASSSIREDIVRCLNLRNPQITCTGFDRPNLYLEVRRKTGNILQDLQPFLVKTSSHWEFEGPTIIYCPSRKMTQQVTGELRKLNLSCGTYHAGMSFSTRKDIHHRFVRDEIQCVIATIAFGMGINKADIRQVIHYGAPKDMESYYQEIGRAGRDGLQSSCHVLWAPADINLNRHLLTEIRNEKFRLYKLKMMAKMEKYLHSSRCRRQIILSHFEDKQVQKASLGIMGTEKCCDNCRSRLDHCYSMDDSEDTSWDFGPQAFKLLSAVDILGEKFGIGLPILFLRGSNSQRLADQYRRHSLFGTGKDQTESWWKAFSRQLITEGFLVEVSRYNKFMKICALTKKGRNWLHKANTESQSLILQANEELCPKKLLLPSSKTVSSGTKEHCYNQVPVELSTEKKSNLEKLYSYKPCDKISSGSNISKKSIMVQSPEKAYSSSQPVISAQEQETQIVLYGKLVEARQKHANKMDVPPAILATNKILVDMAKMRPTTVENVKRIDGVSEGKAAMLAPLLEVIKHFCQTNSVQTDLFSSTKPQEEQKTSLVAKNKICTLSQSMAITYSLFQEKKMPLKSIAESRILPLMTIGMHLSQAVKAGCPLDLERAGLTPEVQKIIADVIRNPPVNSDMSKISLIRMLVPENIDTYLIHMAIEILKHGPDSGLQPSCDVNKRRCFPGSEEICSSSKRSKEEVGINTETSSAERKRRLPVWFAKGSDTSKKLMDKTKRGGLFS
Description: Protein level of WRN on the day of T-oligo treatment is indicated at “0 Hrs”. T-oligo (40 μM, T) or diluent (D) were added and cells collected after 24 or 48 hours for western analysis. Control fibroblasts were either sham (IR, −) or irradiated with 10 Gy IR (IR, +) and collected after one hour. The western blot was probed with antibodies, recognizing WRN, p53 phosphoserine 15 or phospho H2AX.
Normal neonatal fibroblasts were treated on 2 consecutive days with 50 ρmol of WRN siRNA or […] of siRNA directed against the control green fluorescent protein (GFP). One day after the second siRNA treatment, representative cultures were collected for western blot analysis to assess the effectiveness of the WRN siRNA in eliminating the protein. Also at this time, duplicate cultures of WRN siRNA-treated or GFP siRNA-treated cultures were given either 40 μM T-oligo (11 mer-1; SEQ ID NO: 2) or an equal amount of diluent. Cells from all conditions were collected one or two days after the addition of T-oligo or diluent and were analyzed by western blot for p53 phosphorylation on serine 15 and phosphorylation of histone H2AX, both well-documented DNA damage responses (Lambert et al., 1998, J Biol Chem 273, 33048-53; Burma et al., 2001, J Biol Chem 276, 42462-7). Also as controls, cell lysates from cells sham-irradiated or irradiated with 10 Gy ionizing radiation (1R) were included. […]

Jurkat cells = test: FACS analysis of propidium iodide stained Jurkat cells (S phase, sub-G0/G1 apoptosis); type: cell-based, human
Description: FIGS. 1A-1H show FACS analysis of propidium iodide stained Jurkat cells (immortalized T lymphocytes), treated with diluent (FIGS. 1A and 1E); 40 μM 11 mer-1 pGTTAGGGTTAG (SEQ ID NO: 2) (FIGS. 1B and 1F); 40 μM 11 mer-2 pCTAACCCTAAC (SEQ ID NO: 3) (FIGS. 1C and 11G); 40 μM 11 mer-3 pGATCGATCGAT (SEQ ID NO: 4) (FIGS. 1D and 1H). Jurkat cells were treated with the stated reagents for 48 hours before analysis (FIG. 1A-1D) or 72 hours (FIGS. 1E-1H).
FIGS. 2A-2F are profiles showing the results of fluorescence activated cell sorting, for the following additions to the cells: FIG. 2A, diluent; FIG. 2B, 0.4 μM 11 mer-1; FIG. 2C, 0.4 μM 11 mer-1-S; FIG. 2D, diluent; FIG. 2E, 40 μM 11 mer-1; FIG. 2F, 40 μM 11 mer-1-S.
Oligonucleotides homologous to the telomere overhang repeat sequence (TTAGGG; SEQ ID NO: 1), sequence (11 mer-1: pGTTAGGGTTAG; SEQ ID NO: 2), complementary to this sequence (11 mer-2: pCTAACCCTAAC; SEQ ID NO: 3) and unrelated to the telomere sequence (11 mer-3: pGATCGATCGAT; SEQ ID NO: 4) were added to cultures of Jurkat cells, a line of human T cells reported to undergo apoptosis in response to telomere disruption. Within 48 hours, 50% of the cells treated with 40 μM of SEQ ID NO: 2 had accumulated in the S phase, compared to 25-30% for control cells (p<0.0003, non-paired t-test; see FIGS. 1A-1D), and by 72 hours, 13% of these cells were apoptotic as determined by a sub-G0/G1 DNA content, compared to 2-3% of controls (p<0.007, non-paired t-test; see FIGS. 1E-1H). At 96 hours, 20±3% of the 11 mer-1 treated cells were apoptotic compared with 3-5% of controls (p<0.0001, non-paired t-test). To exclude preferential uptake of the 11 mer-1 as an explanation of its singular effects, Jurkat cells were treated with oligonucleotides labeled on the 3′ end with fluorescein phosphoramidite, then subjected to confocal microscopy and FACS analysis. The fluorescence intensity of the cells was the same after all treatments at 4 hours and 24 hours.
Cultures of Jurkat human T cells were treated with either diluent, 11 mer-1 (SEQ ID NO: 1) or the phosphorothioate 11 mer-1 (11 mer-1-S) for 96 hours, then collected and processed for FACS analysis. Two concentrations of the oligonucleotides were tested, 0.4 μM (FIGS. 2A-2C) and 40 μM (FIGS. 2D-2F).

S91 cells = test: UV-induced melanogenesis in S91 cells (melanin content, OD 475 nm); type: cell-based, mouse; conditions: 100 μM, one week
Source text: FIG. 6 is a bar graph showing the melanin content (in pg/cell) of cells that have been sham-treated (no irradiation, no oligonucleotides), or treated with ultraviolet light (UV), or unirradiated but given pTspT, or irradiated with UV and given pTspT.
Duplicate cultures of S91 cells (100,000 cells/39 cm^2) were either sham-irradiated or irradiated with 5 mJ/cm^2 solar-simulated light from a 1 kW xenon arc solar-simulator (XMN 1000-21, Optical Radiation, Azuza, Calif.) metered at 285 5 nm using a research radiometer (model IL1700A, International Light, Newburyport, Mass.). Two sham-irradiated plates were then supplemented with 100 μM pTspT and two irradiated cultures were similarly treated with pTspT. After one week, cells were collected, counted and analyzed for melanin content by dissolving the cell pellets in 1 N NaOH and measuring the optical density at 475 nm. […] However, this response was blocked by the addition of pTspT (FIG. 6). In addition, the constitutive pigmentation of these cells was reduced by the pTspT in the sham-irradiated cultures, similar to the data presented in FIGS. 4 and 5.

Substance | phosphorylation of p53 serine 37 (p53 serine 37) | stimulation of melanogenesis (melanin content) (S91 mouse melanoma cells; 40 μM) | level of the E2F1 transcription factor [1] | p53 level [1] | phosphorylation of 450 kDa protein (DNA-PKCS) (DNA-PKCS) | cells in the S phase [2] | ability to induce phosphorylation of H2AX after WRN knock-down (WRN) | ability to induce phosphorylation of p53 (serine 15) after WRN knock-down (WRN) | effect on exponentially growing cell cycle profile (Jurkat cells; 0.4 μM, 96 hours) | apoptotic cells (sub-G0/G1 DNA content) (Jurkat cells; 40 μM, 72 hours, controls 2-3%) [%] | apoptosis (sub-G0/G1 peak) (Jurkat cells; 40 μM, 96 hours) | cells accumulated in the S phase (Jurkat cells; 40 μM, within 48 hours, control cells 25-30%) [%] | apoptotic cells (Jurkat cells; 96 hours, controls 3-5%) [%] | constitutive pigmentation (S91 mouse melanoma cells; 100 μM) | stimulation of melanogenesis (melanin content) (S91 mouse melanoma cells; 100 μM) | UV-induced doubling of melanin content (S91 cells; 5 mJ/cm^2 solar-simulated light) | constitutive pigmentation (S91 cells; sham-irradiated cultures)
pGTTAGGGTTAG (DNA, 5' {P}, backbone not given here) [11 mer-1] | phosphorylated | stimulated melanogenesis | concomitant increase | increase | leads to phosphorylation | Forty-three | dramatically reduced | dramatically reduced | neither of the oligonucleotides affected | 13 | induced extensive apoptosis | 50 | 20±3 |  |  |  | 
pTspT |  |  |  |  |  |  |  |  |  |  |  |  |  | reduced the constitutive pigmentation | did not | blocked | reduced
pTpT |  |  |  |  |  |  |  |  |  |  |  |  |  |  | stimulated melanogenesis |  | 
